Where a SMILES comes first, the peptide text is derived from it. Bridges are numbered along the chain shown (N, C = ends). [ ]: non-standard residue; d: D form. The star is where a group is joined. X1 = O=C(O)CN1CCN(CC(=O)O)CCN(CC(=O)N[C@@H](CS(=O)(=O)O)C(=O)N[C@@H](CCCCNC(=O)CCCc2ccc(I)cc2)C(=O)*)CCN(CC(=O)O)CC1; X6 = COc1ccc(CCCC(=O)NCCCC[C@H](NC(=O)[C@H](CS(=O)(=O)O)NC(=O)CN2CCN(CC(=O)O)CCN(CC(=O)O)CCN(CC(=O)O)CC2)C(=O)*)cc1; 2Nal = N[C@@H](Cc1ccc2ccccc2c1)C(=O)O; Lys(iPr) = CC(C)NCCCC[C@H](N)C(=O)O
Experiment: in vivo
Design: species or system mice
Settings: male, NOD.Cg-Rag1tm1Mom Il2rgtm1Wjl/SzJ (NRG), mouse, iv, total radioactivity
Method: The Z138 Mantle cell lymphoma cell line was purchased from the American Type Culture Collection (ATCC©CRL-3001). The cell line was cultured in a 5% CO2 atmosphere at 37° C. in a humidified incubator with IMDM medium supplemented with 10% fetal bovine serum, 100 I.U./mL penicillin, and 100 μg/mL streptomycin.
[^68Ga]GaCl3 was eluted from an iThemba Labs generator with a total of 4 mL of 0.1 M HCl. The eluted [^68Ga]GaCl3 solution was added to 2 mL of concentrated HCl. This radioactive mixture was then added to a DGA resin column and washed with 3 mL of 5 M HCl. The column was then dried with air and the [^68Ga]GaCl3 (0.10-0.50 GBq) was eluted with 0.5 mL of water into a vial containing a solution of the unlabeled precursor (25 μg) in 0.7 mL HEPES buffer (2 M, pH 5.3). The reaction mixture was heated in a microwave oven (Danby; DMW7700WDB) for 1 min at power setting 2. The mixture was purified by semi-prep HPLC and quality control was performed via analytical HPLC with the co-injection of the unlabeled standard with a one-twelfth of the radiotracer. Radiochemical yields (decay-corrected) were >50% and radiochemical purities were >95%.
Animal experiments were performed in accordance with guidelines established by the Canadian Council on Animal Care, under a research protocol approved by the Animal Ethics Committee of the University of British Columbia. For all studies, male NOD.Cg-Rag1tm1Momll2rgtm1Wjl/SzJ (NRG) mice were used and cells injected in a 100 μL solution of 1:1 ratio of PBS/Matrigel. For preclinical imaging and biodistribution studies, 5×10^6 cells of Z138, cells were subcutaneously inoculated on the left or right flank and tumors were grown to a size of 200-300 mm^3. […]
Under isoflurane anesthesia (2-2.5% isoflurane in 2 L/min 02), mice were injected intravenously with [^68Ga]Ga-BL34L6 or [^68Ga]Ga-BL34L7. Mice were euthanized by CO2 inhalation after anesthesia with isoflurane. Tissues were harvested, washed in PBS, patted dry, weighed, and then assayed radioactivity on a gamma counter. Counted radioactivities were converted to percentage injected dose per gram of tissue (% ID/g) using a calibration curve.

[1] = Biodistribution: Small Intestine

Structure (SMILES) | tissue uptake at 1 h (Biodistribution: Adrenals) | tissue uptake at 1 h (Biodistribution: Blood) | tissue uptake at 1 h (Biodistribution: Bone) | tissue uptake at 1 h (Biodistribution: Brain) | tissue uptake at 1 h (Biodistribution: Heart) | tissue uptake at 1 h (Biodistribution: Kidneys) | tissue uptake at 1 h (Biodistribution: Liver) | tissue uptake at 1 h (Biodistribution: Lungs) | tissue uptake at 1 h (Biodistribution: Muscle) | tissue uptake at 1 h (Biodistribution: Pancreas) | tissue uptake at 1 h [1] | tissue uptake at 1 h (Biodistribution: Spleen) | tissue uptake at 1 h (Biodistribution: Stomach) | tissue uptake at 1 h (Biodistribution: Testes) | tissue uptake at 1 h (Biodistribution: Z138 Tumor) | tissue to tissue ratio at 1 h (Ratio Tumor-to-Blood) | tissue to tissue ratio at 1 h (Ratio Tumor-to-Bone) | tissue to tissue ratio at 1 h (Ratio Tumor-to-Kidney) | tissue to tissue ratio at 1 h (Ratio Tumor-to-Muscle) | tissue to tissue ratio at 1 h (Ratio Tumor-to-Pancreas) | other results
CC(C)NCCCC[C@H](NC(=O)[C@@H]1CCSc2c3cccc([N+](=O)[O-])c3cn2[C@@H](CCCCNC(=O)[C@H](CS(=O)(=O)O)NC(=O)CN2CCN(CC(=O)O)CCN(CC(=O)O)CCN(CC(=O)O)CC2)C(=O)CC(Cc2ccc(O)cc2)C(=O)N[C@@H](CCCCNC(C)C)C(=O)N[C@H](CCCNC(=N)N)C(=O)N[C@@H](Cc2ccc3ccccc3c2)C(=O)N[C@H](C)C(=O)N1)C(N)=O (some centres unmarked) [[^68Ga]Ga-3NOPA-BL34L2, metal not drawn] | 0.7 %ID/g | 0.77 %ID/g | 0.56 %ID/g | 0.03 %ID/g | 0.45 %ID/g | 5.66 %ID/g | 12.5 %ID/g | 4.14 %ID/g | 0.19 %ID/g | 0.21 %ID/g | 0.58 %ID/g | 2.44 %ID/g | 0.12 %ID/g | 0.33 %ID/g | 7.97 %ID/g | 10.4 | 15.5 | 1.41 | 41.8 | 38.1 | 
COc1ccc(CCCC(=O)NCCCC[C@H](NC(=O)[C@H](CS(=O)(=O)O)NC(=O)CN2CCN(CC(=O)O)CCN(CC(=O)O)CCN(CC(=O)O)CC2)C(=O)NCCCC[C@@H]2NC(=O)CC[C@H](C(=O)N[C@@H](CCCCNC(C)C)C(N)=O)NC(=O)[C@@H](C)NC(=O)[C@H](Cc3ccc4ccccc4c3)NC(=O)[C@@H](CCCNC(=N)N)NC(=O)[C@H](CCCCNC(C)C)NC(=O)[C@H](Cc3ccc(O)cc3)NC2=O)cc1 [[^68Ga]Ga-BL34L7, metal not drawn] (K(X6)Y[Lys(iPr)][dR][2Nal][dA][dE][Lys(iPr)]-NH2; lactam N-7) | 0.52 %ID/g | 1.73 %ID/g | 0.4 %ID/g | 0.04 %ID/g | 0.41 %ID/g | 2.45 %ID/g | 1.24 %ID/g | 1.75 %ID/g | 0.14 %ID/g | 0.23 %ID/g | 0.34 %ID/g | 0.59 %ID/g | 0.09 %ID/g | 0.44 %ID/g | 11.1 %ID/g | 6.5 | 37.2 | 4.51 | 87.1 | 9.07 | 
CC(C)NCCCC[C@H](NC(=O)[C@H]1CCC(=O)N[C@@H](CCCCNC(=O)[C@H](CCCCNC(=O)CCCc2ccc(I)cc2)NC(=O)[C@H](CS(=O)(=O)O)NC(=O)CN2CCN(CC(=O)O)CCN(CC(=O)O)CCN(CC(=O)O)CC2)C(=O)N[C@@H](Cc2ccc(O)cc2)C(=O)N[C@@H](CCCCNC(C)C)C(=O)N[C@H](CCCNC(=N)N)C(=O)N[C@@H](Cc2ccc3ccccc3c2)C(=O)N[C@H](C)C(=O)N1)C(N)=O [[^68Ga]Ga-BL34L11, metal not drawn] (K(X1)Y[Lys(iPr)][dR][2Nal][dA][dE][Lys(iPr)]-NH2; lactam N-7) | 4.99 %ID/g | 18.7 %ID/g | 1.53 %ID/g | 0.29 %ID/g | 4.53 %ID/g | 5.39 %ID/g | 3.7 %ID/g | 8.36 %ID/g | 1.39 %ID/g | 1.67 %ID/g | 1.28 %ID/g | 2.35 %ID/g | 0.97 %ID/g | 2.14 %ID/g | 6.55 %ID/g | 0.35 | 4.32 | 1.27 | 4.85 | 3.91 | tissue uptake at 3 h (Biodistribution: Adrenals): 2.34 %ID/g; tissue uptake at 3 h (Biodistribution: Blood): 13.4 %ID/g; tissue uptake at 3 h (Biodistribution: Bone): 1.23 %ID/g; tissue uptake at 3 h (Biodistribution: Brain): 0.22 %ID/g; tissue uptake at 3 h (Biodistribution: Heart): 3.17 %ID/g; tissue uptake at 3 h (Biodistribution: Kidneys): 3.9 %ID/g; tissue uptake at 3 h (Biodistribution: Liver): 3.02 %ID/g; tissue uptake at 3 h (Biodistribution: Lungs): 6.64 %ID/g; tissue uptake at 3 h (Biodistribution: Muscle): 1.08 %ID/g; tissue uptake at 3 h (Biodistribution: Pancreas): 1.42 %ID/g; tissue uptake at 3 h [1]: 1.11 %ID/g; tissue uptake at 3 h (Biodistribution: Spleen): 2 %ID/g; tissue uptake at 3 h (Biodistribution: Stomach): 0.48 %ID/g; tissue uptake at 3 h (Biodistribution: Testes): 2.59 %ID/g; tissue uptake at 3 h (Biodistribution: Z138 Tumor): 11.3 %ID/g; tissue to tissue ratio at 3 h (Ratio Tumor-to-Blood): 0.85; tissue to tissue ratio at 3 h (Ratio Tumor-to-Bone): 10.3; tissue to tissue ratio at 3 h (Ratio Tumor-to-Kidney): 2.91; tissue to tissue ratio at 3 h (Ratio Tumor-to-Muscle): 10.5; tissue to tissue ratio at 3 h (Ratio Tumor-to-Pancreas): 7.95
